From article PMC12720113, “The binding mechanism of a novel ferrous ion chelating peptide from chicken blood hemoglobin and the bioavailability of the chelate” (Food Chemistry: X, 2025)
Where two headings read alike, the source gives them in different places. Marks after values point to notes of the source that are not given here. Each block holds one compound with its values, some of them ahead of it. Where no end group is shown, it is not given here.

Tests used:
[1] = Effect of different dietary components on iron retention; assay type: in vitro ADME
Method: Then, the pH was adjusted to 2.0, and oxalic acid solution (1 %, w/v) was added. Gastrointestinal digestion simulation was then performed under the conditions described in 2.9.2. After the reaction was complete, the enzyme was inactivated, and the supernatant was collected after centrifugation. To assess the effects of phytate and dietary fiber on iron absorption, 1 % phytate and 8 % dietary fiber were added to the sample solution, and the digestion and measurement steps were repeated. By comparing changes in iron retention under different treatment conditions, the impacts of phytate and dietary fiber on the stability of […] chelate were analyzed. For calculations of iron retention rates, refer to Section 2.9.1.

[2] = Iron chelating rate (alcohol precipitation method); assay type: binding; conditions: synthesized peptide 1 mg/mL, pH 5 sodium acetate buffer, 1 mL + 2 mL FeCl2•4H2O 1.5 mM, 37 °C, 30 min, means ± SEM, three independent experiments
Method: The detection of iron chelation activity was performed using the method described by [Lin et al. (2021)]. The peptide solution was prepared using sodium acetate buffer. Subsequently, 1 mL of the peptide solution (1 mg/mL, pH 5) was mixed with 2 mL of FeCl₂•4H₂O (1.5 mM) and reacted at 37 °C for 30 min. Then, the alcohol precipitation method was used to determine the chelation rate of ferrous ions:(1) Iron chelating rate%=A−A1/A×100% where: A is the total amount of ions added; A1 is the content of free ions in the supernatant.
The peptides identified by mass spectrometry were synthesized by China Qiangyao Co., Ltd. (Shanghai, China) using Fmoc-protected amino acid solid-phase peptide synthesis, with the purity of these peptides evaluated at over 98 %. The ferrous ion chelating activity was verified using the method described in Section 2.3.

Zeta potential = assay type: physicochemical; conditions: 1 mg/mL solution, 25 °C, Zetasizer Nano ZSE
Method: (§1) An appropriate amount of […] and […]-Fe solutions with a concentration of 1 mg/mL were added to U-shaped cuvettes and equilibrated at a constant temperature of 25 °C for 5 s. The Zeta potential values and particle size distributions of the samples were determined using a Zetasizer Nano ZSE analyzer to evaluate their surface charge characteristics and solution stability.

[3] = Particle size distribution; assay type: physicochemical; conditions: 1 mg/mL solution, 25 °C, Zetasizer Nano ZSE
Method: as §1

Thermogravimetry (TG) = assay type: physicochemical; conditions: TAEDKKLIQ from 249 °C to 426 °C; TAEDKKLIQ-Fe from 638 °C to 686 °C; 10 °C/min
Method: 5 mg of […] and […]-Fe lyophilized powders were weighed, respectively, and the thermal stability analysis was carried out by […]. The sample chamber temperature range is set from 50 to 800 °C, with a heating rate of 10 °C/min. The thermogravimetric change curves of the samples were recorded synchronously.

[4] = Intermolecular force analysis with dissociation reagents; assay type: physicochemical; conditions: 2 mg/mL, read at 500 nm
Method: Referring to the study by [Sun et al. (2020)], the intermolecular forces of […]-Fe were analyzed using different dissociation reagents. The absorbance values at 500 nm of the sample solution (2 mg/mL) were measured at the initial moment of the reaction (0 min) and after 30 min, respectively. At 30 min of the reaction, 1 mol/L NaCl, 30 mmol/L DTT (dithiothreitol), 0.5 % SDS, and 6 mol/L urea were added sequentially, followed immediately by absorbance detection using an enzyme meter.

[5] = Temperature and pH stability test (iron retention); assay type: physicochemical; conditions: 1 mg/mL aqueous solution, 2 h
Method: The temperature stability of […]-Fe was determined using the method described by [Qu et al. (2022)]. The aqueous solution of […]-Fe (1 mg/mL) was incubated for 2 h at a temperature gradient of 30–80 °C and a pH gradient of 2–9. […]-Fe was separated using the alcohol precipitation method to calculate the iron retention rate:(2) Iron retention%=A−A0/A×100% where A represents the total iron content added to the reaction (mmol/mL), A0 represents the iron ion content in the supernatant after the reaction (mmol/mL).

[6] = In vitro digestive simulation (iron retention); assay type: in vitro ADME
Method: In vitro simulated digestion of […] according to [Ding et al. (2025)]. […] To simulate the digestive processes of the stomach and intestines separately, the pH values of the three iron supplements were adjusted to 2.0 and 7.6, respectively, and pepsin and trypsin (3 %, w/w) were added separately. The mixture was incubated in a water bath at 37 °C for 2 h. To simulate the digestive processes of the gastrointestinal tract, the three iron supplements were subjected to simulated gastric digestion followed by intestinal digestion. The retention rates of iron after gastric digestion, intestinal digestion, and simulated gastrointestinal digestion were determined according to the method described in Section 2.9.1.

Caco-2 cells = assay: Caco-2 cell viability assay (MTT); assay type: cell-based; conditions: 24 h, 490 nm, means ± SEM
Method: Caco-2 cell viability assay was conducted on […]-Fe according to the method of [Wu et al. (2019)]. And lactoferrin was chosen as an experimental control. When the cell fusion rate was close to 80 %, the cells were dissociated and passaged using the trypsin-EDTA mixed digest. Cultivate the 23rd generation of cells in the logarithmic growth phase at 37 °C and 5 % CO₂ for 24 h. Then, a gradient concentration of […]-Fe and Ac-[…]-Fe was added to the wells of the experimental group, and all the samples were incubated for 24 h. After incubation, 20 μL of MTT reagent was added to each well. After 2 h of reaction, 150 μL of DMSO was added and agitated for 10 min. The absorbance values at 490 nm were measured to reflect cell activity levels. Cell relative activity (%) was calculated:(3) Relative cell viability%=As−Ab/Ac−Ab×100 where: As represents the absorbance value of the sample treatment, Ab represents the absorbance value without cells, and Ac represents the absorbance value without sample treatment.

Compound: O=C([O-])[C@H](O)[C@@H](O)[C@H](O)[C@H](O)CO.O=C([O-])[C@H](O)[C@@H](O)[C@H](O)[C@H](O)CO.[Fe+2] [ferrous gluconate, reference compound]
Soluble iron content in the presence of phytic acid, oxalic acid or dietary fiber alone (rank) ([1]; 1 % oxalic acid, 1 % phytate or 8 % dietary fiber, then simulated gastrointestinal digestion, 37 °C): lower

Compound: QAWEKAASH [Hemoglobin subunit alpha-D(12th–20th) peptide, synthesized]
Chelation rate (%) [2]: 81.38 ± 0.27^c %

Compound: LSDLHAHKLR [Hemoglobin subunit alpha-A(84th–93th) peptide, synthesized]
Chelation rate (%) [2]: 87.07 ± 0.12^b %

Zeta potential (Zeta potential): 41.8 mV
Particle size, peak of the distribution [3]: 295 nm
Weight loss, second stage (TG) (Thermogravimetry (TG)): 12.32%
Decrease in transmittance after DTT ([4]; 30 mmol/L DTT added at 30 min, disulfide bonds): 0.138
Decrease in transmittance after SDS ([4]; 0.5 % SDS added at 30 min, hydrophobic forces): 0.103
Decrease in transmittance after NaCl ([4]; 1 mol/L NaCl added at 30 min, electrostatic interactions): 0.20
Decrease in transmittance after urea ([4]; 6 mol/L urea added at 30 min, hydrogen bonding): 0.09
Ferrous ion retention at 30 °C to 40 °C ([5]; alcohol precipitation): no significant loss observed
Iron retention, pH 6-9 ([5]; pH range 6-9): above 88%
Overall retention of ferrous ions as the temperature continued to increase ([5]; temperature gradient 30-80 °C, above 40 °C): above 40%
Retention of soluble iron with phytic acid [1]: 76.73%
Soluble iron content in the presence of phytic acid, oxalic acid or dietary fiber alone (rank) [1]: highest level
Compound: TAEDKKLIQ-Fe
Iron retention in simulated digestion compared with the control iron supplements [6]: superior to that of ferrous sulfate and ferrous gluconate
Relative vitality of cells (%) (Caco-2 cells; Caco-2, 0.125 mg/mL): 98.06 ± 1.22%
Relative vitality of cells (%) (Caco-2 cells; Caco-2, 0.25 mg/mL): 97.72 ± 1.67%
Relative vitality of cells (%) (Caco-2 cells; Caco-2, 0.5 mg/mL): 97.53 ± 0.89%
Relative vitality of cells (%) (Caco-2 cells; Caco-2, 1 mg/mL): 97.21 ± 1.45%

Compound: TAEDKKLIQ
Ferrous retention after transfer to simulated intestinal fluid digestion ([6]; pH 7.6, trypsin 3 % w/w, 37 °C, 2 h, after gastric phase): significant increase in ferrous retention
